According to article PMC10336128, “In vitro efficacy of different PEGylation designs on cathelicidin-like peptide with high antibacterial and antifungal activity” (Scientific Reports, 2023):
Like-named read-outs stand apart in the source and are kept apart here. No end group written: not given here.

Columns and labels:
[1] = test system: S. aureus ATCC 25923; experiment: microbe, parasite or virus in culture; assay type: cell-based, Staphylococcus aureus
Protocol: (§1) Staphylococcus aureus (S. aureus ATCC 25923), Escherichia coli (E. coli ATCC 25922), Pseudomonas aeruginosa (P. aeruginosa ATCC 27853), Candida albicans (C. albicans ATCC 10231), methicillin-resistant S. aureus (MRSA, ATCC 33591) and vancomycin-resistant Enteroccus faecium (VRE-faecium, ATCC BAA-2316) were grown in MHA at 37 °C, overnight. A colony was then selected and transferred to MHB. Each bacterial solution in the MHB was adjusted to 0.5 McFarland with OD600 value between 0.08 and 0.1 using UV–Vis spectrophotometer (NanoDrop™ One/OneC Microvolume, Thermo Scientific). Afterward, 0.5 McFarland bacteria cultures were diluted in MHB at a ratio of 1:100. The peptide/conjugate concentration was quantified using a UV–Vis spectrophotometer at 214 nm. Serial dilutions of peptide and conjugates (1024–0.5 µg/mL) were prepared in MHB with a total volume of 95 µL in a round-bottom 96-well plate. Of the prepared bacterial suspensions, 5 µL was added into sample dilutions in each prepared well. Ampicillin (GeneMark) was used as a positive control and bacterial solution alone was used as a negative control. All 96-well plates were incubated overnight at 37 °C, and all samples were prepared in triplicate. Then, samples were measured at 600 nm using a microplate reader (Gen5 Synergy HT BioTek, USA)[31].

[2] = test system: E. coli ATCC 25922; experiment: microbe, parasite or virus in culture; assay type: cell-based, Escherichia coli
Protocol: as §1

[3] = test system: P. aeruginosa ATCC 27853; experiment: microbe, parasite or virus in culture; assay type: cell-based, Pseudomonas aeruginosa
Protocol: as §1

[4] = test system: C. albicans ATCC 10231; experiment: microbe, parasite or virus in culture; assay type: cell-based, Candida albicans
Protocol: as §1

[5] = test system: MRSA ATCC 33591; experiment: microbe, parasite or virus in culture; assay type: cell-based, methicillin-resistant S. aureus
Protocol: as §1

[6] = test system: VRE-faecium ATCC BAA-2316; experiment: organism not typed; assay type: cell-based, vancomycin-resistant Enteroccus faecium
Protocol: as §1

[7] = MTT cytotoxicity assay; assay type: cell-based; conditions: for CC50 at 24 h: human, HaCaT keratinocyte cells; for IC50 at 24 h: mouse
Protocol: Human skin keratinocyte (HaCaT, HEKa, PCS-200-011™, ATCC) and mouse embryonic fibroblast (3T3, CRL-1658™, ATCC) cells were counted to 5 × 10^4 cells/well in 100 µL of DMEM containing 10% FBS, and 1% Pen/Strep antibiotics were placed in a flat-bottom 96-well plate and incubated in 5% CO2 at 37 °C. After 24 h, the medium on the attached cells was discarded. Serial peptide/conjugate dilutions (1024–0.5 µg/mL) prepared in complete DMEM (100 µL of total volume) in triplicate were added to the cell-seeded plates and incubated in 5% CO2 at 37 °C for 24 h. Cytotoxicity was determined using the 3-(4, 5-dimethylthiazol-2-yl)-2, 5-diphenyltetrazolium bromide assay kit (MTT, Cell Proliferation Kit, Roche) following the kit procedure and measured at 550 nm and 690 nm using a microplate reader. Cytotoxicity was calculated according to the cell control samples in complete DMEM.

[8] = test system: human erythrocytes; experiment: Hemolytic activity assay; assay type: cell-based
Protocol: (§2) 300 µL of fresh human blood (Acibadem Mehmet Ali Aydinlar University, Istanbul, Turkey) was suspended in 20 mL of sterile tris-saline (150 mM NaCl, 10 mM Tris, pH 7.2) solution and centrifuged 3 times at 1500 rpm for 5 min. Pellet was dissolved with 100 mL of tris-saline and 100 µL blood mix was added into each well of a round-bottom 96-well plate. Serial peptide/conjugate dilutions (1024–0.5 µg/mL) prepared in tris-saline (100 µL of total volume) in triplicate were added on top of the blood mix. 10% DMSO prepared in Triton X-100 treated with blood mix used as a positive control, and the blood mix itself was used as a negative control. The samples were kept on separate round-bottom 96-well plates at 37 °C for 30 min and 1 h, respectively, to examine two different conditions. After incubations, the 96-well plates were centrifuged at 1500 rpm for 10 min. The supernatants were then transferred into a new round-bottom 96-well plate for measurement at 414 nm using a microplate reader. The lysis percentage of the peptide/conjugate was calculated using Eq. (1) as follows:1 Hemolysis%=Sample414nm-Negativecontrol414nm/Positivecontrol414nm-Negativecontrol414nm×100

[9] = test system: human erythrocytes; experiment: Cell-associated hemolytic activity assay (with S. aureus ATCC 25923); assay type: cell-based; conditions: human erythrocytes plus S. aureus ATCC 25923 (5 µL of 1.5 × 10^6 CFU/mL), tris-saline, 37 °C, read at 414 nm, three replicates
Protocol: as §2
S. aureus ATCC 25923 bacterial solution in MHB was prepared as in the minimum inhibitory concentration (MIC) experiment. […]

[10] = test system: plasma proteases; assay type: in vitro ADME, human
Protocol: To separate human plasma, EDTA-treated fresh human blood from a healthy donor (Acibadem Mehmet Ali Aydinlar University, Istanbul, Turkey) was centrifuged at 1500 rpm for 5 min, and the supernatant was collected. The peptide and conjugates were mixed with human plasma to a final concentration of 0.1 mg/mL (1.7 µL, 2048 µg/mL sample completed with plasma) and incubated at 37 °C, 1500 rpm in a shaker. Aliquots were collected after 0 h, 6 h, and 24 h incubation and stored at – 20 °C[32]. 5 µL protease inhibitor was added onto 35 µL aliquots.
S. aureus ATCC 25923 was cultured in MHA overnight at 37 °C. A colony was then selected and transferred to MHB. The bacterial solution was adjusted to 0.5 McFarland with OD600 value between 0.08 and 0.1 using UV–Vis spectrophotometer and diluted to a 1:200 ratio in MHB. 5 µL of the bacterial suspension was added into serial dilutions of aliquots prepared in MHB (40 µL of total volume) in a round-bottom 96-well plate and incubated overnight at 37 °C. Afterward, 96-well plates were measured at 600 nm using a microplate reader. All samples were prepared in triplicate.

RLLRLLLRLLR-NH2 [TN6]
Minimum Inhibitory Concentration ([1]; ATCC 25923): 1 µg/mL | Minimum Inhibitory Concentration ([2]; ATCC 25922): 1 µg/mL | Minimum Inhibitory Concentration ([3]; ATCC 27853): 4 µg/mL | Minimum Inhibitory Concentration ([4]; ATCC 10231): 1 µg/mL | Minimum Inhibitory Concentration ([5]; ATCC 33591): 0.78 µg/mL | Minimum Inhibitory Concentration ([6]; ATCC BAA-2316): 1.56 µg/mL | CC50 at 24 h [7]: 161 µg/mL | IC50 at 24 h [7]: 14.6 µg/mL | HC50 (dose killing 50% of the red blood cells), 60 min ([8]; human erythrocytes in tris-saline pH 7.2, 60 min, 37 °C, without bacteria, read at 414 nm, three replicates): hemotoxic effect at all doses | HC50 (dose killing 50% of the red blood cells), 60 min ([8]; pH 7.2): toxic even at 1 µg/mL | hemolysis, 30 min ([8]; pH 7.2): well above the toxic dose (HC50) | HC50, 60 min with S. aureus ATCC 25923 [9]: hemotoxic effect at all doses | MIC after plasma proteases, 0 h ([10]; 0 h): 2.56 µg/mL | MIC after plasma proteases, 6 h ([10]; 6 h): 2.56 µg/mL | MIC after plasma proteases, 24 h ([10]; 24 h): 5.12 µg/mL

CC1(C)S[C@@H]2[C@H](NC(=O)[C@H](N)c3ccccc3)C(=O)N2[C@H]1C(=O)O [Ampicillin, reference compound]
MIC ([1]; Staphylococcus aureus, ATCC25923, S. aureus ATCC 25923, serial dilution in MHB, 96-well, overnight 37 °C, OD 600 nm, triplicate, same results in all replicates, mass of whole conjugate, read-out: Minimum Inhibitory Concentration): 8 µg/mL | MIC ([2]; Escherichia coli, ATCC25922, E. coli ATCC 25922, serial dilution in MHB, 96-well, overnight 37 °C, OD 600 nm, triplicate, same results in all replicates, mass of whole conjugate, read-out: Minimum Inhibitory Concentration): 32 µg/mL | MIC ([3]; Pseudomonas aeruginosa, ATCC27853, P. aeruginosa ATCC 27853, serial dilution in MHB, 96-well, overnight 37 °C, OD 600 nm, triplicate, same results in all replicates, mass of whole conjugate, read-out: Minimum Inhibitory Concentration): 256 µg/mL | MIC ([4]; Candida albicans, ATCC10231, C. albicans ATCC 10231, serial dilution in MHB, 96-well, overnight 37 °C, OD 600 nm, triplicate, same results in all replicates, mass of whole conjugate, read-out: Minimum Inhibitory Concentration): 16 µg/mL | MIC ([5]; Staphylococcus aureus, MRSA ATCC 33591, serial dilution in MHB, 96-well, overnight 37 °C, OD 600 nm, triplicate, same results in all replicates, mass of whole conjugate, read-out: Minimum Inhibitory Concentration): 32 µg/mL | MIC ([6]; VRE-faecium ATCC BAA-2316, serial dilution in MHB, 96-well, overnight 37 °C, OD 600 nm, triplicate, same results in all replicates, mass of whole conjugate, read-out: Minimum Inhibitory Concentration): 16 µg/mL

GIGKFLHSAKKFGKAFVGEIMNS [Mag-2, reference compound]
CC50 at 24 h ([7]; HaCaT cells, MTT, 24 h, 37 °C, DMEM 10% FBS, three replicates, maximum concentration tested 512 µg/mL, mass of whole conjugate, read-out: inhibitory concentration (IC50), cytotoxicity): 258 µg/mL | IC50 at 24 h ([7]; 3T3 cells, MTT, 24 h, 37 °C, DMEM 10% FBS, three replicates, mass of whole conjugate, read-out: inhibitory concentration (IC50), cytotoxicity): 153 µg/mL
